The results in this text go back to patent US7365042B2, “Pyridine-3-sulfonyl compounds as pesticidal agents” (BASF Aktiengesellschaft, priority 2002, dated 2008).

Where “and” joins values, the source holds several entries; their conditions need not be identical. Equal values may be shown once.

Holding throughout (format): in vivo
Assay [1] relates to Cotton aphid (Aphis gossypii). The experiment in a line: Cotton aphid leaf dip test (CA H43). To be noted: mixed life stages. How it is done: (§1) Test compounds were prepared and formulated into aqueous formulations using acetone. The formulations were tested using the following target species: • SAW-L52-PRODER (southern armyworm), 2ND-3RD Instar Larvae, Leaf Dip, 4 days • CA-H43-APHIGO (cotton aphid), Mixed Life Stages, Leaf Dip • BA-H40-APHIFA (black bean aphid), Mixed Life Stages, Plant Drench • GPA-H52-MYZUPE (green peach aphid), Mixed Life Stages, Leaf Dip • SLWF-H45-BEMIAR (silver leaf whitefly), Adult, Leaf Dip • TSMR-A42-TETRUR (two-spotted spider mite, P-resistant origin), Mixed Life Soges, Leaf Dip
Test Procedures for Cotton aphid (Aphis gossypii) (CA—leaf dip):
Selected cotton plants to the cotyledon stage (one plant per pot). Placed one heavily infested cotyledon pair, hosting approximately 100 laboratory-reared aphids, an top of each test plant. Allowed the aphids to transfer to the test plants (overnight). Removed the drying cotyledons from the test plants prior to dipping.
Prepared test solutions as needed in 50:50 acetone: water and 100 ppm Kinetic® surfactant. Dipped the infested leaves of the intact plant into the test solution to provide complete coverage of the leaf surfaces. Placed in a well-vented area to dry.

The subject of a further assay is Bean aphid (Aphis fabae). The experiment in a line: Bean aphid test on nasturtium seedlings (BA H40). As to conditions: 3 days; for BA H40 activity rating: mixed life stages. Set-up: key to BA H40 observation (feeding): R = Reduced feeding, regardless of cause (e.g., repellent effects). How it is done:
as §1
Test Procedures for Bean aphid (Aphis fabae) (BA—Foliar):
Transferred approximately 5-day-old nasturtium seedlings (at the state of unfolded cotyledons), grown in Metro mix in propagation trays in the greenhouse, to Rootcubes, which were held in propagation trays Pressed the seed (still attached to the seedling) in the central depression of each cube. Held transferred seedlings for approximately 3 days in the greenhouse for expansion of the cotyledons.
In the insecticide screening laboratory, infested the seedlings. Positioned a paint roller screen above the 72 plants in each tray so that the screen was in contact with the foliage of the test plants. Spread approximately 50 infested nasturtium stems and leaves (from approximately 2-3 peat pots of insectary-reared aphids) an each screen. Kept the trag with the seedlings sitting in about ½ in. water overnight in the laboratory (leaving lights in lab on). Migration of aphids to the test plants occurred by morning. Removed the screen with drying leaves from the trays of test plants and discarded the leaves.
Prepared test solutions as needed in 50:50 acetone:water and 100 ppm Kinetic® surfactant. Selected plants to dip that had approximately 2-30 aphids per plant. Dipped each plant into the test solution to provide complete coverage of the foliage, stem, protruding seed surface and surrounding cube surface. Kept treated plants in the fume hood to dry. For routine screening, used one plant/treatment.
Placed treated plants in bioassay trays, 1 plant/well. Added water to fill each well. This allowed the plants to be watered from the roots, not interfering with the foliar treatment, and reduced potential migration of aphids between treatments. Kept treated plants at room temperature an the insecticide screening lab bench with continuous fluorescent light for 3 days.

Assay [2] relates to Green peach aphid (Myzus persicae). The assay is described as follows: Green peach aphid leaf dip test (GPA H52). As to conditions: pepper, mixed life stages, five days. How it is done:
as §1
Test Procedures for GPA—Green peach aphid (Myzus persicae)—Leaf Dip:
Selected pepper plants (one plant per pot) in the second leaf-pair stage, with the 1st leaf-pair measuring 6-10 cm from tip to tip. Removed the cotyledons. Placed infested pepper leaves or leaf sections on top of the test plants, allowing for approximately 60 laboratory-reared aphids per plant. Allowed the aphids to transfer from the leaf sections to the test plants (overnight) to reach a density of at least 40 aphids per plant, then removed the leaf sections.
Prepared test solutions as needed in 50:50 acetone:water and 100 ppm Kinetic® surfactant (STP#1A). Dipped the leaves of the infested plant into the test solution to provide complete coverage of the leaf surfaces. Placed in a well-vented area to dry. Test plants were maintained under fluorescent light (24 hour photoperiod) at 25±2° C. and 20-40% relative humidity for five days, at which time aphid survival was determined (see Table 1a).

Assay [3] has as its system Two-spotted spider mite (Tetranychus uriticae), P-resistant origin. The assay is described as follows: Two-spotted spider mite leaf dip test (TSMR A42). To be noted: 300 ppm, lima bean, mixed life stages, five days. How it is done: as §1
Test Procedures for Two-spotted spider mite (Tetranychus uriticae) TSM—leaf-dip:
Selected lima bean plants (one plant per pot), grown to the first leaf pair with a span of 7-12 cm. Placed sections of a heavily infested leaf (laboratory reared mites) an the test plants. Allowed the mites to transfer from the leaf sections to the test plants (at least two houss) to provide at least 100 mites per leaf. Removed the leaf sections from the test plants prior to dipping.
Prepared test solutions as needed in 50:50 acetone:water and 100 ppm Kinetic® surfactant. Dipped the infested leaves of the intact plant into the test solution to provide complete coverage of the leaf surfaces. Placed in a well-vented area to dry. […]

As to `C#CCNS(=O)(=O)c1cnccc1C(F)(F)F` [Compound 1, 4-Trifluoromethyl-pyridine-3-sulfonic acid prop-2-ynylamide], the “CA H43 activity rating” value is listed as 0 (0 = 0-25% reduction of live population vs. check) in assay [1] (10 ppm), 8 (8 = 86-99% reduction of live population vs. check) in assay [1] (100 ppm) and 8 (8 = 86-99% reduction of live population vs. check) in assay [1] (300 ppm). In addition, the “BA H40 activity rating” value with Bean aphid (Aphis fabae) (10 ppm) is given as 0^ (0 = 0-25% reduction of live population vs. check); in the assay with Bean aphid (Aphis fabae) (100 ppm), 5 (5 = 50-74% reduction of live population vs. check); in the assay on Bean aphid (Aphis fabae) (300 ppm), 8 (8 = 86-99% reduction of live population vs. check). The “BA H40 observation (feeding)” value in the assay with Bean aphid (Aphis fabae) (100 ppm) and in the assay with Bean aphid (Aphis fabae) (300 ppm) was “R” each time. Besides, the entries for the “GPA H52 activity rating” value in assay [2] (10 ppm), in assay [2] (100 ppm) and in assay [2] (300 ppm) were 0 (0 = 0-25% reduction of live population vs. check), 7 (7 = 75-85% reduction of live population vs. check) and 8 (8 = 86-99% reduction of live population vs. check), respectively. Moreover, the “TSMR A42 activity rating” value in assay [3] is given as 0 (0 = 0-25% reduction of live population vs. check).
Consider `N#CCNS(=O)(=O)c1cnccc1C(F)(F)F` [Compound 2, 4-Trifluoromethyl-pyridine-3-sulfonic acid cyanomethyl-amide], for which the “CA H43 activity rating” value is given as 0 (0 = 0-25% reduction of live population vs. check) in assay [1] (10 ppm), 8 (8 = 86-99% reduction of live population vs. check) in assay [1] (100 ppm) and 9 (9 = 100% reduction of live population vs. check) in assay [1] (300 ppm). Moreover, the “BA H40 activity rating” value in the assay on Bean aphid (Aphis fabae) (10 ppm) is given as 0^ (0 = 0-25% reduction of live population vs. check); in the assay with Bean aphid (Aphis fabae) (100 ppm) it was 0 (0 = 0-25% reduction of live population vs. check); with Bean aphid (Aphis fabae) (300 ppm) it was 7 (7 = 75-85% reduction of live population vs. check). Further, the “BA H40 observation (feeding)” value in the assay on Bean aphid (Aphis fabae) (100 ppm) and in the assay with Bean aphid (Aphis fabae) (300 ppm) was “R” each time. For the same molecule, the “GPA H52 activity rating” value is 0 (0 = 0-25% reduction of live population vs. check) in assay [2] (10 ppm); 3 (3 = 25-49% reduction of live population vs. check) in assay [2] (100 ppm); 8 (8 = 86-99% reduction of live population vs. check) and 5 (5 = 50-74% reduction of live population vs. check) in assay [2] (300 ppm). Further, the “TSMR A42 activity rating” value in assay [3] is listed as 0 (0 = 0-25% reduction of live population vs. check).
